What was measured:
human 5-HT1A receptor = human 5-HT1A receptor (Homo sapiens (Human), UniProt P08908); test: Test 2: binding activity to human 5-HT1A receptor ([3H] 8-OH-DPAT, CHO cell membrane); conditions: [3H] 8-OH-DPAT; read-out: 5-HT1A binding affinity (Ki value)
hERG channel = hERG channel (Homo sapiens (Human), UniProt Q12809); test: Test 5-1: activity for inhibiting hERG channel (whole-cell patch clamp, hERG-CHO cell, Qpatch); format: cell-based; conditions: read-out: hERG inhibition IC50
hERG channel, sequence (Q12809 whole entry): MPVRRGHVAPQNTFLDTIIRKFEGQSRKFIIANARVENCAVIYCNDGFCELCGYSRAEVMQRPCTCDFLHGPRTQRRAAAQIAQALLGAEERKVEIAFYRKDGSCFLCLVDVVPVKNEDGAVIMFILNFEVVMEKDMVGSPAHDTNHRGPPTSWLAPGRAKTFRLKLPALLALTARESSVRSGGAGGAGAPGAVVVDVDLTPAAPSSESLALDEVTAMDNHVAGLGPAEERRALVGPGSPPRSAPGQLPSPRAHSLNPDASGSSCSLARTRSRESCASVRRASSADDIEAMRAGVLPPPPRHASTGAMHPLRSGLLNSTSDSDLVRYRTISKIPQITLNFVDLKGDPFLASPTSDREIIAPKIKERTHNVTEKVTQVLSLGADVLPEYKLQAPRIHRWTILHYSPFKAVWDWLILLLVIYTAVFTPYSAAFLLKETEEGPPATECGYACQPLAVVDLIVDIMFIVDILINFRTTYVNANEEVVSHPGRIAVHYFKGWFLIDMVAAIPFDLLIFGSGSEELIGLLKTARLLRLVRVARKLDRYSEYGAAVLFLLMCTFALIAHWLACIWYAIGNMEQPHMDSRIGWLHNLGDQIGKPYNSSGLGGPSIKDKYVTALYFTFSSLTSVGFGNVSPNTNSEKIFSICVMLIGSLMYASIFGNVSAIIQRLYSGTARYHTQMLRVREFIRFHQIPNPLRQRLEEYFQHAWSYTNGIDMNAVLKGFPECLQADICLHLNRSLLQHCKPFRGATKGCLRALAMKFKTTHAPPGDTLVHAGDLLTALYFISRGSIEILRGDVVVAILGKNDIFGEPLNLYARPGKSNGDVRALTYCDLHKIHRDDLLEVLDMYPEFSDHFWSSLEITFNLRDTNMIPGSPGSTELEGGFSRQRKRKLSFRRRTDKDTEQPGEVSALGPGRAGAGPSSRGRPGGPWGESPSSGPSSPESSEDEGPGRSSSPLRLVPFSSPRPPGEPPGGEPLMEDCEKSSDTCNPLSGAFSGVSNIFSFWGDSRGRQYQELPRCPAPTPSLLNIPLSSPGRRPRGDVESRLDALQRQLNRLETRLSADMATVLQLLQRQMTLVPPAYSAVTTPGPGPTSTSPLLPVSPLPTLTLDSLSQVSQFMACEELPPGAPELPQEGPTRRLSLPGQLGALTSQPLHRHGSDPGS
Description: Test 5-1: Evaluation of Activity for Inhibiting hERG Channel
The activity of the present compound for inhibiting hERG channel was measured by whole-cell patch clamp method with auto patch clamp system, using CHO cell wherein hERG channel involved in human rapidly activating delayed rectifier potassium current (IKr) was forcibly expressed.
hERG-CHO cell purchased from ChanTest was incubated at 37° C. in a CO2 incubator, and the cell was exfoliated from the flask with trypsin to prepare a cell suspension, shortly before the hERG current measurement.
Extracellular fluid: 2 mmol/L CaCl2, 1 mmol/L MgCl2, 10 mmol/L HEPES, 4 mmol/L KCl, 145 mmol/L NaCl, 10 mmol/L glucose
Intracellular fluid: 5.4 mmol/L CaCl2, 1.8 mmol/L MgCl2, 10 mmol/L HEPES, 31 mmol/L KOH, 10 mmol/L EGTA, 120 mmol/L KCl, 4 mmol/L Na2-ATP
Test compound solution: The test compound was dissolved in DMSO by adjusting the concentration to 2 mmol/L or 20 mmol/L to prepare each test compound solution. […] (Measurement of Current Value and Data Analysis)
The cell suspension, the extracellular fluid, the intracellular fluid, and the measurement plate were set in an auto patch clamp system, and the hERG current was measured by whole-cell patch clamp method. […] Each pulse interval was 15 seconds. The data analysis was carried out with Qpatch Assay Software (Biolin Scientific). The test was carried out applying increscently 4 concentrations of each test compound, and the average of the peak tail currents that were obtained by the last 3 stimulations in each applied concentration was determined to be the evaluated data. By using the current inhibition rate for the pre-applied current at each concentration of each test compound, IC50 value was calculated by Hill equation with the software.

[1] = Test 4-2: predictive test of human half-life (monkey distribution volume, serum unbound fraction, Test 3-2 stability); conditions: in vivo, predicted using Test 3-2 metabolic stability
Description: Test 4-2: Predictive Test of Human Half-Life
0.01 mol/L of the present compound in aqueous hydrochloric acid solution was parenterally administered to cynomolgus monkey. 5 minutes, 15 minutes, 30 minutes, 1 hour, 2 hours, 4 hours, 6 hours, and 24 hours after the administration, the blood was collected. The plasma was obtained from the collected blood, the drug concentration in the plasma was measured with a LC-MS, and the monkey distribution volume was calculated from the transition of the concentrations. The unbound fraction rate of the present compound in serum of human and monkey was measured by equilibrium dialysis method.
Using the monkey distribution volume, the unbound fraction rate in serum of human and monkey, and the result of the metabolic stability of human liver microsome which was obtained in Test 3-2, the half-life in human was calculated according to the formula below. “Human distribution volume”=“monkey distribution volume”×“unbound fraction rate in serum of human”/“unbound fraction rate in serum of monkey” “Human hepatic clearance”=(“human hepatic blood flow”×“unbound fraction rate in serum of human”×56.7×“metabolic stability of human liver microsome”)/(“human hepatic blood flow”+“unbound fraction rate in serum of human”×56.7×“metabolic stability of human liver microsome”) “Half-life in human”=0.693×“human distribution volume”/“human hepatic clearance”

Wistar male rat = test: Test 8: forced swimming test; format: in vivo; conditions: oral, once a day, 5 mg/kg administration
Description: Test 8: Forced Swimming Test
The antidepressive effect of the present compound was evaluated in a manner mentioned below.
The test was carried out with 8-week-old Wistar male rat in 4-day test schedule. On the 1st day of the test, the rat was put into a transparent plastic bath filled with 5.8 L of tap water at 25° C., and made to swim for 15 minutes as swimming training. After the swimming training, the rat was rapidly wiped to remove the attached waterdrop, and returned to the home cage. 15 minutes after the training, the present compound or a positive control compound was orally administered with methylcellulose suspension to the rat. On the next day of the training and the day after next, the present compound or the positive control compound was orally administered with methylcellulose suspension to the rat once a day. On the 4th day, the swimming test was carried out. On the day of the swimming test, the present compound or the positive control compound was orally administered with methylcellulose suspension to the rat one hour before the start of the test. The swimming test was carried out with the rat in the above-mentioned water bath for 5 minutes. The swimming movement of the individual was recorded with a video from the side of the water bath, and the immobility time was measured with a stop-watch. […]

human D2 receptor = human D2 receptor (Homo sapiens (Human), UniProt P14416); test: Test 2: binding activity to human D2 receptor ([3H] spiperone, CHO cell membrane); conditions: [3H] spiperone; read-out: D2 binding affinity (Ki value)
human D2 receptor, sequence (P14416 whole entry): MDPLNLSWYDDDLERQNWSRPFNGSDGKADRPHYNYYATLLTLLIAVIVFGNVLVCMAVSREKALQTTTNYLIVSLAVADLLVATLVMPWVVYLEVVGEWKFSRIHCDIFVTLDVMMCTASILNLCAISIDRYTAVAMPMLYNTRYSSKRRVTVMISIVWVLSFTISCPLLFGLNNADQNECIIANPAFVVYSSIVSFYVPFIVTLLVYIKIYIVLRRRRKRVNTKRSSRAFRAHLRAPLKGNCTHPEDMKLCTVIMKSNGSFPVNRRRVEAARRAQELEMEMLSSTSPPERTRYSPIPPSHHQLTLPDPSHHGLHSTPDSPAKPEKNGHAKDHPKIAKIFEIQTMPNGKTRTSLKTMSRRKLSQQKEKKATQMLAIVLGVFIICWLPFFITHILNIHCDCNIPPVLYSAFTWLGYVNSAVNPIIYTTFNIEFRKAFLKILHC

[2] = Test 3-1: metabolic stability test of human liver microsome (0.1 mg/mL); format: in vitro ADME; conditions: test compound 0.1 μmol/L, 37° C., 30 minutes
Procedure, shortened: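 Compound at 0.1 μmol/L incubated 30 min at 37 °C with human liver microsomes (0.1 mg/mL) and NADPH (3.2 mmol/L) in 25 mmol/L phosphate buffer, pH 7.4. Remaining parent measured by LC-MS; stability given as −ln(residual ratio)/time/microsome concentration (mL/min/mg protein).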

[3] = Test 3-2: metabolic stability test of human liver microsome (0.5 or 1.0 mg/mL); format: in vitro ADME; conditions: test compound 0.1 μmol/L, 37° C., 30 minutes
Description: Test 3-2: Metabolic Stability Test of Human Liver Microsome
In order to evaluate the metabolic stability of human liver microsomes more precisely, the stability of the present compounds for human liver microsome metabolism was evaluated with a suitable concentration of human liver microsome, as mentioned below. The used human liver microsome was obtained from Xenontech. Human liver microsome, NADPH, and each test compound were mixed in 25 mmol/L phosphate buffer solution (pH 7.4) to adjust each concentration as shown below, and the mixture was incubated at 37° C. for 30 minutes. • human liver microsome: 0.5 or 1.0 mg/mL • NAPDH: 3.2 mmol/L • test compound: 0.1 μmol/L
The residual ratio of the test compound in each sample after the incubation for 30 minutes was measured with a LC-MS, and the metabolic stability of human liver microsome was calculated about each test compound with the following formula. Metabolic stability of human liver microsome (mL/min/mg protein)=−LN (residual ratio)/“reaction time”/“concentration of human liver microsome”

human 5-HT1A receptor, sequence (P08908 whole entry): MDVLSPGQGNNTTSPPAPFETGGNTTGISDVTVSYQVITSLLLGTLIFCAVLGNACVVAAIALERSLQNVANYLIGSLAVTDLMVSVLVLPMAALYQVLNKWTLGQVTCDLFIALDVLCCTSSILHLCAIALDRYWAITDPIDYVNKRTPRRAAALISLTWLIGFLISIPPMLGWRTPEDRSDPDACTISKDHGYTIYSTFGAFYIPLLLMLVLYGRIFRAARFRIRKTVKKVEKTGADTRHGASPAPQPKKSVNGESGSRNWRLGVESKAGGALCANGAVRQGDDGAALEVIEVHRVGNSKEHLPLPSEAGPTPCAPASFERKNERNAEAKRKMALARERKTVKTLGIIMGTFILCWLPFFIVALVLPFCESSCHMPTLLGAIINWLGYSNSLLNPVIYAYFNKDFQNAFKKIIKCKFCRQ

Ki (human 5-HT1A receptor): 0.0004 µM | half-life [1]: 24 h | Ki (human D2 receptor): 1.14 µM | Metabolic stability of human liver microsome [2]: 0.073 mL/min/mg protein | Metabolic stability of human liver microsome [3]: 0.031 mL/min/mg protein
SMILES: O=C(NCCN1CCC(c2cccc(C(F)(F)F)n2)CC1)C1CCC(F)(F)CC1 [Example 1, 4,4-Difluoro-N-(2-{4-[6-(trifluoromethyl)pyridin-2-yl]piperidin-1-yl}ethyl)cyclohexane-carboxamide]
IC50 (hERG channel): 2.5 µM | decrease of the immobility time for the solvent-administration group (Wistar male rat): 74.7%

— US10800755B2, “2,6-disubstituted pyridine derivative” (Sumitomo Dainippon Pharma Co., Ltd., priority 2017, dated 2020)
